Assay results: paper PMC9834664, “Linking medicinal cannabis to autotaxin–lysophosphatidic acid signaling” (Life Science Alliance, 2023)
Entries after “also recorded” stand apart in the source; their conditions may differ.

What was measured:
[1] = biological target: T1, ATX-β (Homo sapiens, UniProt Q13822); assay: End-point choline release assay, relative inhibition by cannabinoids; format: biochemical; conditions: 10 µM compound; for inhibition of ATX-β catalysis: LPC 18:1 200 µM; for ANOVA comparison with CTRL, ATX-β inhibition: significance threshold P 0.005
T1 construct: made in house; host or cells: HEK293-Flp-In cells, protein purified from the culture medium
Procedure: (§1) We first set out to validate the hypothesis that cannabinoids might bind ATX to modulate its catalytic function. For this, we used various cannabinoids (Fig 1A) at a fixed concentration of 10 µM for each compound in our biochemical validation with LPC 18:1 (200 µM) as substrates in an end-point assay for ATX-β (UniProt ID: Q13822-1) and ATX-γ (UniProt ID: Q13822-3) (Fig 1B and C). […] In addition, we can exclude interference of the cannabinoid compounds in our enzymatically coupled assay, as no difference is detectable in the absence of ATX and LPC (Fig S1B), performed in the presence of choline.
(§2) ATX lysophospholipase D activity was measured using choline release from LPC 18:1 and LPC 16:0 with a choline quantification kit ([Hausmann et al, 2016]) (Fig S6D). 30 nM ATX-β or ATX-γ was incubated with 200 µM LPC 18:1 or LPC 16:0 in a final volume of 100 µl buffer, which contained 50 mM Tris–HCl (pH 8.5) and 150 mM NaCl. The LPC solution was obtained by evaporating a commercial LPC chloroform solution directly in a 1.5-ml Eppendorf tube under vacuum. The dried LPC was then resuspended in water to obtain the mentioned concentration and incubated at 37°C on a shaker for 5–10 min before addition to the microplate. The cannabinoid solutions were prepared from a stock solution in ethanol or other organic solvents. After initial evaporation and/or dilution to obtain the highest concentration mentioned in the assay figure, a twofold dilution was performed in Eppendorf tubes. All the compounds were dissolved in 100% ethanol as a vehicle.
(§3) The experiments for determining relative inhibition for various cannabinoids were performed at 37°C by adding 10 µM of the cannabinoid or endocannabinoid mentioned. Released choline was detected, and the enzyme activity was determined by measuring fluorescence at λex/λem = 540/590 nm in 96-well plates, every 60 s for 50 min minimum using a CLARIOstar plate reader (BMG Labtech). Absolute values were taken at 25 min after visual inspection, and the 0-min baselines were subtracted to account for compound differences. The relative inhibition values were determined using the normalize method in GraphPad Prism (GraphPad Software, Inc.). Measurements have been performed in triplicate with three different protein preparations. All the compounds were controlled for interference of fluorescence and inhibition in the same assay conditions but in the absence of ATX and replacing LPC with choline.

[2] = biological target: T2, ATX-γ (Homo sapiens, UniProt Q13822); assay: as above; format: biochemical; conditions: 10 µM compound; for inhibition of ATX-γ catalysis: LPC 18:1 200 µM; for ANOVA comparison with CTRL, ATX-γ inhibition: significance threshold P 0.005
T2 construct: made in house; host or cells: HEK293-Flp-In cells, protein purified from the culture medium
Procedure: as §1, §2, §3

[3] = biological target: CB1; conditions: cited from earlier work
[4] = biological target: CB2; conditions: cited from earlier work
[5] = biological target: T1, ATX-β; assay: Dose–response choline release assay; format: biochemical; conditions: LPC 18:1
Procedure: (§4) ATX lysophospholipase D activity was measured using choline release from LPC 18:1 and LPC 16:0 with a choline quantification kit ([Hausmann et al, 2016]). 30 nM ATX-β or ATX-γ was incubated with 200 µM LPC 18:1 or LPC 16:0 in a final volume of 100 µl buffer, which contained 50 mM Tris–HCl (pH 8.5) and 150 mM NaCl. The LPC solution was obtained by evaporating a commercial LPC chloroform solution directly in a 1.5-ml Eppendorf tube under vacuum. The dried LPC was then resuspended in water to obtain the mentioned concentration and incubated at 37°C on a shaker for 5–10 min before addition to the microplate.
(§5) The experiment for determining apparent EC50 for various cannabinoids was performed at 37°C by adding the cannabinoid in a serial twofold dilution for each concentration. The cannabinoid solutions were prepared from a stock solution in ethanol or other organic solvents. After initial evaporation and/or dilution to obtain the highest concentration mentioned in the assay figure, a twofold dilution was performed in Eppendorf tubes. All the compounds were dissolved in 100% ethanol as a vehicle. […] For CBN, 5-DMH-CBD, and CBD, the starting concentration was 50 µM, 150 µM, and 2 mM, respectively. Released choline was detected, and the enzyme activity was determined by measuring fluorescence at λex/λem = 540/590 nm in 96-well plates, every 60 s for 50 min minimum using a CLARIOstar plate reader (BMG Labtech). Initial velocities were taken between 19 and 31 min after visual inspection. The apparent EC50 values were determined using the non-linear regression analysis method (fit: [inhibitor] versus response [three parameter]) in GraphPad Prism (GraphPad Software, Inc.). However, it should be mentioned that the relative concentrations of the different lipids/inhibitors in their physical form as micelles, liposomes, protein-bound, or aggregates are unknown ([Carman et al, 1995]). These uncertainties are widely known, and we provide here an apparent EC50 for consideration. Measurements have been performed in triplicate with three different protein preparations. […]

[6] = biological target: T2, ATX-γ; assay: Dose–response choline release assay; format: biochemical; conditions: LPC 18:1
Procedure: as §4, §5

[7] = biological target: T2, ATX-γ; assay: Mode of inhibition analysis with increasing LPC 18:1; format: biochemical; set-up: Vmax: unit not given here
[8] = test system: LPA1 receptor internalization in HA/LPA1-transfected HeLa cells; assay: hLPA1 receptor internalization assay; format: cell-based, human
[9] = ref Hunault et al, 2008, cited from earlier work
[10] = no reference given; cited from earlier work

Compound | inhibition of ATX-β catalysis [1] | ANOVA comparison with CTRL, ATX-β inhibition [1] | inhibition of ATX-γ catalysis [2] | ANOVA comparison with CTRL, ATX-γ inhibition [2] | other results
CCCCC/C=C\C/C=C\C/C=C\C/C=C\CCCC(=O)OC(CO)CO [2-AG, 2-arachidonoylglycerol] | did not affect the catalysis | not significantly inhibited | did not affect the catalysis | not significantly inhibited | 
CCCCCc1cc(O)c2c(c1)OC(C)(C)C1=C2C[C@H](C)CC1 [6a10aTHC, 9(R)-Δ6a,10a-THC] | further increase in the magnitude of inhibition | statistically significant differences | further increase in the magnitude of inhibition |  | 
C=C(C)[C@@H]1CCC(C)=C[C@H]1c1c(O)cc(CCCCC)cc1O [CBD, cannabidiol] | weak inhibition | statistically significant differences | no observable inhibition |  | 
CCCCCn1cc(C(=O)c2cccc3ccccc23)c2ccccc21 [JWH018] | did not influence the catalytic activity | not significantly inhibited | did not influence the catalytic activity | not significantly inhibited | Ki ([3]; CB1, ref Aung et al, 2000): 9 ± 8 nM; Ki ([4]; CB2, ref Aung et al, 2000): 2.9 ± 2.7 nM
CCCCCc1cc(O)c2c(c1)OC(C)(C)[C@@H]1CCC(C)=C[C@@H]21 [THC, Δ^9-trans-tetrahydrocannabinol] | more than 50% | statistically significant differences | more than 50% |  | magnitude of inhibition (maximum inhibition) [5]: around 60%; type of inhibitor [5]: partial inhibitor; type of inhibitor [6]: partial inhibitor; Vmax ([7]; 0.35 µM THC (8.5 without THC)): 7.3; Km ([7]; 0.35 µM THC (10.1 without THC)): 19.6 µM; Vmax ([7]; 0.7 µM THC (8.5 without THC)): 6.3; Km ([7]; 0.7 µM THC (10.1 without THC)): 29.9 µM; Vmax ([7]; 1.4 µM THC (8.5 without THC)): 5.0; Km ([7]; 1.4 µM THC (10.1 without THC)): 31.5 µM; mode of inhibition ([7]; ATX-γ, LPC 18:1): mixed-type inhibition; also recorded: mixed-type inhibitor; LPA1 internalization ([8]; 30 nM ATX, 150 µM LPC 18:1, 1 µM THC, paired t test P = 0.0008): significantly reduced LPA1 internalization; also recorded: reduced the number of endosomes internalized; LPA1 internalization ([8]; LPA in the presence of THC): LPA1 receptors were internalized; LPA1 internalization ([8]; THC alone (1 µM)): No internalization; inhibition of ATX-LPA signaling (LPA1 internalization) ([8]; higher LPC concentration, 400 µM LPC, P = 0.0068): not abolished; binding to CB1 ([3]; ref Pertwee, 2008): low nanomolar regime; binding to CB2 ([4]; ref Pertwee, 2008): low nanomolar regime; mean THC peak in serum ([9]; 69.4-mg THC dose, SD = 106.8): 190.4 ng/mL; serum concentration of THC, lower end of range in molar units ([9]; after a 49.1-mg THC dose, equals 59 ng/ml): 190 nM; serum concentration of THC, upper end of range in molar units ([9]; after a 49.1-mg THC dose, equals 421 ng/ml): 1300 nM; bound to plasma proteins [10]: 95–97%
CCCCCc1cc2c(c(O)c1C(=O)O)[C@@H]1C=C(C)CC[C@H]1C(C)(C)O2 [Tetrahydrocannabinolic acid, tetrahydrocannabinolic acid] | < 50% | statistically significant differences | < 50% |  | 
CCCCC/C=C\C/C=C\C/C=C\C/C=C\CCCC(=O)NCCO [anandamide] | did not affect the catalysis | not significantly inhibited | did not affect the catalysis | not significantly inhibited | 
lysophosphatidic acid [LPA] |  |  |  |  | LPA1 internalization ([8]; LPA treatment of cells (1 µM LPA 18:1)): high LPA1 receptor internalization
